The numbers were not newly measured in patent EP4374853A1, “SOLID FORMULATION OF ENZALUTAMIDE” (Lotus Pharmaceutical Co., Ltd., priority 2022, dated 2024), which cites them from elsewhere.

Structures are written as SMILES.

The conditions of data set [1]: between pH 1-11.

Take `CNC(=O)c1ccc(N2C(=S)N(c3ccc(C#N)c(C(F)(F)F)c3)C(=O)C2(C)C)cc1F` [Enzalutamide, 4-{3-[4-cyano-3-(trifluoromethyl)phenyl]-5,5-dimethyl-4-oxo-2-sulfanylideneimiidazolidin-1-yl}-2-fluoro-N-methylbenzymide]: the Permeability entry is recorded as “high permeability”. For the same compound, in data set [1], the “Solubility in aqueous media” value was “practically insoluble”.
